From ChEMBL document CHEMBL3991601, “The target landscape of clinical kinase drugs” (Science, 2017) come the findings set out here.

Molecules are shown by their SMILES. Activity calls are given as the source filed them. Rule as the data show it, for most assays here: actives have a measured Kd and inactives only a lower limit.

For test [1], the target named is STE20-like serine/threonine-protein kinase (Homo sapiens, UniProt Q9H2G2).
In test [2] the target is T1, DNA replication licensing factor MCM4 (Homo sapiens, UniProt P33991).
T1 sequence (P33991 whole entry): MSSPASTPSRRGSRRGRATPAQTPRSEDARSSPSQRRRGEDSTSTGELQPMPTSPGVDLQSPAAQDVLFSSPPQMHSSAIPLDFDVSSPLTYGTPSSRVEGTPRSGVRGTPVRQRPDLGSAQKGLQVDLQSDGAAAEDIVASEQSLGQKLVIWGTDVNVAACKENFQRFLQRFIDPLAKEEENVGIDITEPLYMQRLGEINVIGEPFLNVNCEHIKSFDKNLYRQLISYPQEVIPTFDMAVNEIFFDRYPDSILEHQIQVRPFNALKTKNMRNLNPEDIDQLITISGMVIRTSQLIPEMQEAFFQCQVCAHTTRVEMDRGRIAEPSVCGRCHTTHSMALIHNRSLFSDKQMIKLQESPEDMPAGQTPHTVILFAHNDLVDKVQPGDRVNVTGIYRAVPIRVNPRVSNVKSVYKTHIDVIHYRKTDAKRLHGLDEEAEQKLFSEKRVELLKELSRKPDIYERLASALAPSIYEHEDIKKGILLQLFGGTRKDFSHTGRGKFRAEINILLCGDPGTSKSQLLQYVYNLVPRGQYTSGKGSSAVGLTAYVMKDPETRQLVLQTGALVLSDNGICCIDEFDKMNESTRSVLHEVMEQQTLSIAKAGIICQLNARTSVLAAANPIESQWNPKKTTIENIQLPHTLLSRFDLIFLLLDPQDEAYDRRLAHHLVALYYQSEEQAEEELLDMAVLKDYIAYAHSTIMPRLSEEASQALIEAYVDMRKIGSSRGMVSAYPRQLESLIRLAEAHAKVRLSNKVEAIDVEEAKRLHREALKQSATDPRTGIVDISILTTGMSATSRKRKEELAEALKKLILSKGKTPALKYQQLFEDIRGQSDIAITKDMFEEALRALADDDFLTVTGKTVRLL

The target in test [3] is Tyrosine-protein kinase Fyn (Homo sapiens, UniProt P06241).
The target in test [4] is T2, Serine/threonine-protein kinase 3 (Homo sapiens, UniProt Q13188).
T2 sequence (Q13188 whole entry): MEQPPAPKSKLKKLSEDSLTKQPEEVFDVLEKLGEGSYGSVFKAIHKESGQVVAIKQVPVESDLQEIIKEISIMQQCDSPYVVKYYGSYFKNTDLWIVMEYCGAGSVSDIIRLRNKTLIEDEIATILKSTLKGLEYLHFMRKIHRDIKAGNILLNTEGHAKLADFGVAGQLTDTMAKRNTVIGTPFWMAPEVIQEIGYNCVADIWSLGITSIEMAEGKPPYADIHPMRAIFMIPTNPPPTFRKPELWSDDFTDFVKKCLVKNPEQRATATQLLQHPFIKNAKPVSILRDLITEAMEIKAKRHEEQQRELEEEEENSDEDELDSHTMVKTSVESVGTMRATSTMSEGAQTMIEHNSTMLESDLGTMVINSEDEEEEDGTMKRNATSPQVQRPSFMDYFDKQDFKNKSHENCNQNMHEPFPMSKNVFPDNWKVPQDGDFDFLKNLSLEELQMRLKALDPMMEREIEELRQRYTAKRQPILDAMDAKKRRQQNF

Test [5] has as its target T3, Pyridoxal kinase (Homo sapiens, UniProt O00764).
T3 sequence (O00764 whole entry): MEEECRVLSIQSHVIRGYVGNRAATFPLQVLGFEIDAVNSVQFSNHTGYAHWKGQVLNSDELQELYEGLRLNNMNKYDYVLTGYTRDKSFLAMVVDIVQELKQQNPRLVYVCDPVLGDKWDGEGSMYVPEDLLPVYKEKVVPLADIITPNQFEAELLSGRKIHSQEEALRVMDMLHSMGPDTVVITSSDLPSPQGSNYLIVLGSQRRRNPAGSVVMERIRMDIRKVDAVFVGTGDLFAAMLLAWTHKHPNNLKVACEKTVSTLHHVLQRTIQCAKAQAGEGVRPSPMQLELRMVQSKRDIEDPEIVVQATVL

Test [6] deals with T4, Cytochrome c1, heme protein, mitochondrial (Homo sapiens, UniProt P08574).
T4 sequence (P08574 whole entry): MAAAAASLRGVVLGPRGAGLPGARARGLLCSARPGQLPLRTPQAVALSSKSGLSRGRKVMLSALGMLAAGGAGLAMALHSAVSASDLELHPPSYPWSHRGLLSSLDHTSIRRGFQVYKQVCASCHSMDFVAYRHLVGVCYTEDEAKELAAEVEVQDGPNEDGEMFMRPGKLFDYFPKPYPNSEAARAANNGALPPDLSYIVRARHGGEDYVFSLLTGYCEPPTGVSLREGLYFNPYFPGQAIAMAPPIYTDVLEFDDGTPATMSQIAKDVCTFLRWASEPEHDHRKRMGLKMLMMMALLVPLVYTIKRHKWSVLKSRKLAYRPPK

The target of test [7] is Mitogen-activated protein kinase 8 (Homo sapiens, UniProt P45983).
For test [8], the target named is BMP-2-inducible protein kinase (Homo sapiens, UniProt Q9NSY1).
For test [9], the target named is T5, Serine/threonine-protein kinase STK11 (Homo sapiens, UniProt Q15831).
T5 sequence (Q15831 whole entry): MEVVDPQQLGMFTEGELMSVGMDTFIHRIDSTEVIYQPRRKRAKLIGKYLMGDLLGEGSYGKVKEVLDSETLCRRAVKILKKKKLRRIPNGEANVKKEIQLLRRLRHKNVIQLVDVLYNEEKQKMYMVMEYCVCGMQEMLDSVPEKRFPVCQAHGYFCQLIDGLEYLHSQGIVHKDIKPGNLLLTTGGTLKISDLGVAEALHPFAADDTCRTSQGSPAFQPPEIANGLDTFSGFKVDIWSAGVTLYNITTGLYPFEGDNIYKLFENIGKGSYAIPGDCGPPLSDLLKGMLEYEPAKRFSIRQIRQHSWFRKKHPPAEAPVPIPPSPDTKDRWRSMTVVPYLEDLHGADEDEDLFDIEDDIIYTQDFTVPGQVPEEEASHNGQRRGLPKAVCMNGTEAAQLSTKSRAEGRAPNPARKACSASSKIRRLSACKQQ
Also: in the data inactive means no Kd found up to 30 µM.

Sequence of STE20-like serine/threonine-protein kinase (Q9H2G2 whole entry): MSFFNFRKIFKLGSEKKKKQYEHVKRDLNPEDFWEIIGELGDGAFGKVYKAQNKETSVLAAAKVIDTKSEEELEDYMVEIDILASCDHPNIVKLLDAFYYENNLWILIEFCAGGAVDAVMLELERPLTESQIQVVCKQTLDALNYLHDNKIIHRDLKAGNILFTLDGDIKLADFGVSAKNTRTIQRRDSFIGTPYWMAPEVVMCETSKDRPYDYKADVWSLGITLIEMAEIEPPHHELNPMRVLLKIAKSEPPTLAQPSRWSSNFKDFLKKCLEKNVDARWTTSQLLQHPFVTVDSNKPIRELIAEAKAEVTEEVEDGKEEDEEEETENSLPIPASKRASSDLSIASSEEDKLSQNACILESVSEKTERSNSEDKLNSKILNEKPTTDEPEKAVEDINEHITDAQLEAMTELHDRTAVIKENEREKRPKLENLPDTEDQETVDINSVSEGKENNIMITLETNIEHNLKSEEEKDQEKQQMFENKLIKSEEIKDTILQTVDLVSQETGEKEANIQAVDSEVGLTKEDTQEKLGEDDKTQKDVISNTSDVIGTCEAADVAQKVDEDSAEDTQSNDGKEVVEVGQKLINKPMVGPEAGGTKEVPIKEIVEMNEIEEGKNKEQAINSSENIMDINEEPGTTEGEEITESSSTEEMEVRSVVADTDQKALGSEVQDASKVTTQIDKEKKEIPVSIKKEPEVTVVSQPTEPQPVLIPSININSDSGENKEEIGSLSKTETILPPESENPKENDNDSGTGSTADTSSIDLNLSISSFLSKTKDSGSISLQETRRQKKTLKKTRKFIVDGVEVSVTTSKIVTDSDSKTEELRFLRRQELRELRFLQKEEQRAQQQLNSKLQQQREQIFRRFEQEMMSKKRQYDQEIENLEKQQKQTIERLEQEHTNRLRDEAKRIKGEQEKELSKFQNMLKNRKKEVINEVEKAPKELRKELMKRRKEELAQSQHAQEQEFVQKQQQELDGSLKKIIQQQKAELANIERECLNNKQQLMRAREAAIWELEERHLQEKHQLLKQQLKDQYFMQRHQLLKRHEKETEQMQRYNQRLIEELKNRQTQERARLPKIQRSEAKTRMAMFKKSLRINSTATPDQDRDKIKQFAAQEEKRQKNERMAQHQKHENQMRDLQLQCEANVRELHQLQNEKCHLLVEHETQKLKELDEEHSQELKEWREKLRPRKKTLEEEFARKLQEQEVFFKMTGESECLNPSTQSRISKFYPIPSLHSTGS
Sequence of BMP-2-inducible protein kinase (Q9NSY1 whole entry): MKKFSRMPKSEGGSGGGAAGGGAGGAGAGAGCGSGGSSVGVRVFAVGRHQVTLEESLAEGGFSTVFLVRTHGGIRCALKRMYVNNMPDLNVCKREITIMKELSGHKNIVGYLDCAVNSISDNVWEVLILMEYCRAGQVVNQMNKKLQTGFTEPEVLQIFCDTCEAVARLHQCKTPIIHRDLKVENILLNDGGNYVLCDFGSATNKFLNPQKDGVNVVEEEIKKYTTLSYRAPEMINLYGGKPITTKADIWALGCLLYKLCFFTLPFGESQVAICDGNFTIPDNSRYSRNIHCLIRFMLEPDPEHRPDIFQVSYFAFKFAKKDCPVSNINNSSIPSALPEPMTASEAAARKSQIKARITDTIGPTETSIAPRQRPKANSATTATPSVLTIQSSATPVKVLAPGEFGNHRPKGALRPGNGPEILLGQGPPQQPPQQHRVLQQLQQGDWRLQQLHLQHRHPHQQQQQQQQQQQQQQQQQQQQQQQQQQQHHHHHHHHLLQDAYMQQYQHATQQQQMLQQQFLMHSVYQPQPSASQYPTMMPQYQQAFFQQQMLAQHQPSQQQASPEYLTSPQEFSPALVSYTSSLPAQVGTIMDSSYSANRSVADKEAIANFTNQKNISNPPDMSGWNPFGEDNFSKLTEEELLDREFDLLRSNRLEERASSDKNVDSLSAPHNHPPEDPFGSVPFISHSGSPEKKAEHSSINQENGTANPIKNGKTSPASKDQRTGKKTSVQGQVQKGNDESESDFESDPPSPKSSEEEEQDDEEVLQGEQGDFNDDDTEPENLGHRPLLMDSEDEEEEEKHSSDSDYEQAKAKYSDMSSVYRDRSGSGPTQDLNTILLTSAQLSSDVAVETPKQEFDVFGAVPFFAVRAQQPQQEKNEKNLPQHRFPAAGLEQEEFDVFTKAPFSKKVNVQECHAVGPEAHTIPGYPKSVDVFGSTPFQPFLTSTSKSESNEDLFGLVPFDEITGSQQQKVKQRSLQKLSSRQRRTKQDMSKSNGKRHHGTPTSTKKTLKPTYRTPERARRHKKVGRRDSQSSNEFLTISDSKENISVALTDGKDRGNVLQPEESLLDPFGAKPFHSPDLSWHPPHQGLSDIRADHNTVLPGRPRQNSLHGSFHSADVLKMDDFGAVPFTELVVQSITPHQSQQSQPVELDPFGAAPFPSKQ
Sequence of Tyrosine-protein kinase Fyn (P06241 whole entry): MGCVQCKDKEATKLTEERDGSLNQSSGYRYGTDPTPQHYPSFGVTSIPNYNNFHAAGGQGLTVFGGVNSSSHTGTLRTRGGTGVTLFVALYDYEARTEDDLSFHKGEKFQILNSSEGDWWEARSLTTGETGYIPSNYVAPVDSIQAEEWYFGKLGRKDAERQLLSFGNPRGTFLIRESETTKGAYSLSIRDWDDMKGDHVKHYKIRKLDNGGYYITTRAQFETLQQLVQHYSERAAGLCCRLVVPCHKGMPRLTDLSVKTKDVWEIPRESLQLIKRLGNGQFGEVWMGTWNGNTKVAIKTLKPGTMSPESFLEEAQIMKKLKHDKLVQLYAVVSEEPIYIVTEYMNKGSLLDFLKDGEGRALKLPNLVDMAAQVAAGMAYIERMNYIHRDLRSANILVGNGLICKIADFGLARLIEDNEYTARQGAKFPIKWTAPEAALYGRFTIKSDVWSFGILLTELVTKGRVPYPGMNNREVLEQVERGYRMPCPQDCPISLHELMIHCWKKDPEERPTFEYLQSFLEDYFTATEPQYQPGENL
Sequence of Mitogen-activated protein kinase 8 (P45983 whole entry): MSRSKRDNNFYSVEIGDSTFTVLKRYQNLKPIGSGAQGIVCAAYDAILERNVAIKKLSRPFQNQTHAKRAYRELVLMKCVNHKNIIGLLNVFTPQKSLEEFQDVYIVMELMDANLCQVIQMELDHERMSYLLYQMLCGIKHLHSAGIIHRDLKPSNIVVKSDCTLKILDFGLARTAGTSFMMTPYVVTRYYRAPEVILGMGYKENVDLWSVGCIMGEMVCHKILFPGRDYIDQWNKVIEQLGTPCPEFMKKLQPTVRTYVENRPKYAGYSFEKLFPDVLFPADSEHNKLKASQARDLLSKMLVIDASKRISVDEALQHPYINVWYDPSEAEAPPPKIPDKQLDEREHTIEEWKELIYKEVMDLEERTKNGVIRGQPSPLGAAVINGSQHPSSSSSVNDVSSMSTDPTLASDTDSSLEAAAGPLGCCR

For orientation: Kd means a measure of binding affinity in units of concentration. With `O=C(Nc1ccc(OC(F)(F)F)cc1)c1sccc1NCc1ccnc2ccccc12` [OSI-930], the Kd in [1], in test [2], in [3], in [4], in test [5] and in test [6] was > 30 µM (inactive) throughout. For the same compound, the Kd in [7], in test [8] and in [9] was > 30 µM (inactive) in each case.
For `C=CCN(/C=C1/C(=O)O[C@H](COC)[C@@]2(C)C1=C(O)C(=O)C1=C2[C@H](OC(C)=O)C[C@]2(C)C(=O)CC[C@@H]12)CC=C` [SONOLISIB], the Kd in test [1], in test [3], in [4], in test [5], in test [6] and in [7] was > 30 µM (inactive) in each case. The Kd in test [8] and in test [9] was > 30 µM (inactive) each time.
Turning to `O=c1[nH]c([C@@H]2CCCN2)nc2c1oc1ccc(Cl)cc12`, the Kd in [1], in test [2], in [3], in test [4], in test [5] and in test [6] was > 30 µM (inactive) each time. The Kd in [7], in [8] and in test [9] was > 30 µM (inactive) throughout.
With `CN1CCN(c2nc(C3=C(c4c[nH]c5ccccc45)C(=O)NC3=O)c3ccccc3n2)CC1` [SOTRASTAURIN], the Kd in test [1], in test [2], in test [3], in test [4], in test [5] and in test [6] was > 30 µM (inactive) throughout. In addition, the Kd in test [7], in test [8] and in test [9] was > 30 µM (inactive) each time.
For `CCN1CCN(Cc2ccc(Nc3ncc(F)c(-c4cc(F)c5nc(C)n(C(C)C)c5c4)n3)nc2)CC1` [ABEMACICLIB], the Kd in test [1], in [2], in test [3], in test [4], in test [5] and in [6] was > 30 µM (inactive) in each case. For the same compound, the Kd was 3.76 µM (active) in test [7], 56 µM (active) in test [8] and > 30 µM (inactive) in [9].
As to `CNC(=O)c1ccc(Nc2ncc(C(F)(F)F)c(NCc3nccnc3N(C)S(C)(=O)=O)n2)cc1` [DEFACTINIB], the Kd is 41 µM (active) in test [1]; > 30 µM (inactive) in test [2]; > 30 µM (inactive) in test [3]; 4.95 µM (active) in test [4]; > 30 µM (inactive) in test [5]; > 30 µM (inactive) in [6]. Besides, the Kd in test [7], in test [8] and in [9] was > 30 µM (inactive) throughout.
On to `Cc1cc(C(=O)Nc2cc(Oc3ccc4nc(NC(=O)C5CC5)cn4n3)ccc2C)n(C)n1` [TAK-593], for which the Kd in [1], in test [2], in test [3], in test [4], in [5] and in test [6] was > 30 µM (inactive) in each case. The Kd in test [7] is > 30 µM (inactive); in [8], 10.9 µM (active); in [9], > 30 µM (inactive).
With `C[C@@H]1COC(Nc2ccc3ncnc(Nc4ccc(OCc5nccs5)c(Cl)c4)c3c2)=N1` [VARLITINIB], the Kd in test [1], in test [2], in test [3], in test [4], in test [5] and in [6] was > 30 µM (inactive) each time. Further, the Kd in [7], in [8] and in test [9] was > 30 µM (inactive) in each case.
`FC(F)(F)c1ccc(CNc2ccc(Cc3c[nH]c4ncc(Cl)cc34)cn2)cn1` [PEXIDARTINIB]: the Kd in test [1], in test [2], in test [3], in [4], in test [5] and in test [6] was > 30 µM (inactive) throughout. Further, the Kd in test [7], in test [8] and in test [9] was > 30 µM (inactive) throughout.
On to `Cc1cc(-c2cc(OC(=O)c3ccccc3)ccc2Cl)cc2nnc(Nc3ccc(OCCN4CCCC4)cc3)nc12` [TG100-801], for which the Kd in test [1], in test [2], in test [3], in [4], in test [5] and in [6] was > 30 µM (inactive) each time. Moreover, the Kd in test [7], in test [8] and in [9] was > 30 µM (inactive) each time.
On to `COc1cccc(Nc2ncnn3ccc(CN4CC[C@@H](N)[C@H](O)C4)c23)c1` [BMS-690514], for which the Kd was > 30 µM (inactive) in [2]; 0.583 µM (active) in [3]; > 30 µM (inactive) in test [4]; > 30 µM (inactive) in test [5]; > 30 µM (inactive) in [6]; > 30 µM (inactive) in test [7]. In addition, the Kd was 1.71 µM (active) in test [8] and > 30 µM (inactive) in [9].
